Test results from US10750743B2, “Pyridazinone herbicides” (E.I. DU PONT DE NEMOURS AND COMPANY, priority 2015, dated 2020).

Columns and labels:
Format in all cases: in vivo
[1] = tested on: barnyardgrass (Echinochloa crus-galli); test: Test A preemergence, directed soil spray, visual injury rating; conditions: Echinochloa crus-galli, pre-emergence, 240 h, 0 is no effect, 100 is complete control, read-out: Plant response rating (0 to 100 scale), Barnyardgrass; for pest or weed control at 125 g/ha: 125 g ai/ha
In short: (§1)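 Compounds in a surfactant-containing solvent were applied as a directed soil spray preemergence, or postemergence to plants 2-10 cm tall at the one- to two-leaf stage, in loam-sand blend. After about 10 d in the greenhouse, injury was rated visually against untreated controls on a 0-100 scale (100 = complete control).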

[2] = tested on: ryegrass, It. (Italian ryegrass, Lolium multiflorum); test: as above; conditions: Lolium multiflorum, pre-emergence, 240 h, 0 is no effect, 100 is complete control, read-out: Plant response rating (0 to 100 scale), Ryegrass, It.; for pest or weed control at 125 g/ha: 125 g ai/ha
In short: as §1

[3] = tested on: ragweed (common ragweed, Ambrosia elatior); test: as above; conditions: Ambrosia artemisiifolia, pre-emergence, 240 h, 0 is no effect, 100 is complete control, read-out: Plant response rating (0 to 100 scale), Ragweed; for pest or weed control at 125 g/ha: 125 g ai/ha
In short: as §1

[4] = tested on: foxtail, giant (giant foxtail, Setaria faberii); test: as above; conditions: Setaria faberi, pre-emergence, 240 h, 0 is no effect, 100 is complete control, read-out: Plant response rating (0 to 100 scale), Foxtail, Giant; for pest or weed control at 125 g/ha: 125 g ai/ha
In short: as §1

corn (Zea mays) = test: Test A postemergence application, visual injury rating; conditions: for plant injury at 125 g/ha: 125 g ai/ha
In short: as §1

kochia (Kochia scoparia) = test: as above; conditions: for pest or weed control at 125 g/ha: 125 g ai/ha
In short: as §1

[5] = tested on: galium (catchweed bedstraw, Galium aparine); test: as above; conditions: for pest or weed control at 125 g/ha: 125 g ai/ha
In short: as §1

[6] = tested on: blackgrass (Alopecurus myosuroides); test: as above; conditions: Alopecurus myosuroides, post-emergence, 240 h, 0 to 100 scale, 0 no effect, 100 complete control, read-out: Blackgrass plant response rating; for pest or weed control at 125 g/ha: 125 g ai/ha
In short: as §1

[7] = tested on: wheat (Triticum aestivum); test: as above; conditions: for plant injury at 125 g/ha: 125 g ai/ha
In short: as §1

[8] = tested on: barnyardgrass (Echinochloa crus-galli); test: as above; conditions: Echinochloa crus-galli, post-emergence, 240 h, 0 to 100 scale, 0 no effect, 100 complete control, read-out: Barnyardgrass plant response rating; for pest or weed control at 125 g/ha: 125 g ai/ha
In short: as §1

[9] = tested on: ryegrass, It. (Italian ryegrass, Lolium multiflorum); test: as above; conditions: for pest or weed control at 125 g/ha: 125 g ai/ha
In short: as §1

[10] = tested on: pigweed (Amaranthus retroflexus); test: as above; conditions: for pest or weed control at 125 g/ha: 125 g ai/ha
In short: as §1

[11] = tested on: ragweed (common ragweed, Ambrosia elatior); test: as above; conditions: for pest or weed control at 125 g/ha: 125 g ai/ha
In short: as §1

[12] = tested on: foxtail, giant (giant foxtail, Setaria faberii); test: as above; conditions: for pest or weed control at 125 g/ha: 125 g ai/ha
In short: as §1

[13] = tested on: ducksalad (Heteranthera limosa); test: Test B flooded paddy test, visual rating; conditions: Heteranthera limosa, 360 h; Flood, 250 g ai/ha, applied to paddy water, rated after 13 to 15 d; read-out: Ducksalad plant response rating (0 to 100 scale, 0 is no effect, 100 is complete control)
In short: (§2)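 Plants grown to the 2-leaf stage. At treatment, pots were flooded to 3 cm above the soil, compound was applied directly to the paddy water, and that depth was held throughout. After 13 to 15 d in the greenhouse, response was rated visually against controls on a 0 (no effect) to 100 (complete control) scale.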

[14] = tested on: sedge, umbrella (small-flower umbrella sedge, Cyperus difformis); test: Test B flooded paddy test, visual rating; conditions: Cyperus difformis, 360 h; Flood, 250 g ai/ha, applied to paddy water, rated after 13 to 15 d; read-out: Sedge, Umbrella plant response rating (0 to 100 scale, 0 is no effect, 100 is complete control)
In short: as §2

[15] = tested on: barnyardgrass (Echinochloa crus-galli); test: Test B flooded paddy test, visual rating; conditions: Echinochloa crus-galli, 360 h; Flood, 250 g ai/ha, applied to paddy water, rated after 13 to 15 d; read-out: Barnyardgrass plant response rating (0 to 100 scale, 0 is no effect, 100 is complete control)
In short: as §2

rice (Oryza sativa) = test: Test B flooded paddy test, visual rating; conditions: Oryza sativa, 360 h; Flood, 250 g ai/ha, applied to paddy water, rated after 13 to 15 d; read-out: Rice plant response rating (0 to 100 scale, 0 is no effect, 100 is complete control)
In short: as §2

[16] = Zea mays, post-emergence, 240 h, 0 to 100 scale, 0 no effect, 100 complete control, read-out: Corn plant response rating
[17] = Bassia scoparia, post-emergence, 240 h, 0 to 100 scale, 0 no effect, 100 complete control, read-out: Kochia plant response rating
[18] = Galium, post-emergence, 240 h, 0 to 100 scale, 0 no effect, 100 complete control, read-out: Galium plant response rating
[19] = Triticum aestivum, post-emergence, 240 h, 0 to 100 scale, 0 no effect, 100 complete control, read-out: Wheat plant response rating
[20] = Lolium multiflorum, post-emergence, 240 h, 0 to 100 scale, 0 no effect, 100 complete control, read-out: Ryegrass, It. plant response rating
[21] = Amaranthus retroflexus, post-emergence, 240 h, 0 to 100 scale, 0 no effect, 100 complete control, read-out: Pigweed plant response rating
[22] = Ambrosia artemisiifolia, post-emergence, 240 h, 0 to 100 scale, 0 no effect, 100 complete control, read-out: Ragweed plant response rating
[23] = Setaria faberi, post-emergence, 240 h, 0 to 100 scale, 0 no effect, 100 complete control, read-out: Foxtail, Giant plant response rating
[24] = 31 g ai/ha, 0 is no effect, 100 is complete control

CC(=O)Oc1c(C)nn(C)c(=O)c1-c1cccc2cc(C)oc12 [Compound 13, 5-(acetyloxy)-2,6-dimethyl-4-(2-methyl-7-benzofuranyl)-3 (2H)-pyridazinone]
70%: pest or weed control at 500 g/ha ([10]; Amaranthus retroflexus, post-emergence, 240 h, 500 g ai/ha, 0 to 100 scale, 0 no effect, 100 complete control, read-out: Pigweed plant response rating) | pest or weed control at 500 g/ha ([11]; Ambrosia artemisiifolia, post-emergence, 240 h, 500 g ai/ha, 0 to 100 scale, 0 no effect, 100 complete control, read-out: Ragweed plant response rating)
20%: pest or weed control at 125 g/ha [1] | plant injury at 500 g/ha (corn (Zea mays); Zea mays, post-emergence, 240 h, 500 g ai/ha, 0 to 100 scale, 0 no effect, 100 complete control, read-out: Corn plant response rating) | plant injury at 500 g/ha ([7]; Triticum aestivum, post-emergence, 240 h, 500 g ai/ha, 0 to 100 scale, 0 no effect, 100 complete control, read-out: Wheat plant response rating)
10%: pest or weed control at 125 g/ha [4]
60%: pest or weed control at 500 g/ha ([1]; 500 g ai/ha) | pest or weed control at 500 g/ha ([4]; 500 g ai/ha) | pest or weed control at 125 g/ha [6] | pest or weed control at 125 g/ha [10, 21]
80%: pest or weed control at 500 g/ha ([3]; 500 g ai/ha) | pest or weed control at 500 g/ha (kochia (Kochia scoparia); Bassia scoparia, post-emergence, 240 h, 500 g ai/ha, 0 to 100 scale, 0 no effect, 100 complete control, read-out: Kochia plant response rating) | pest or weed control at 125 g/ha [5, 18] | pest or weed control at 500 g/ha ([6]; 500 g ai/ha)
0%: plant injury at 125 g/ha (corn (Zea mays); [16]) | plant injury at 125 g/ha [7, 19] | pest or weed control at 125 g/ha [8]
50%: pest or weed control at 125 g/ha (kochia (Kochia scoparia); [17]) | pest or weed control at 500 g/ha ([8]; 500 g ai/ha) | pest or weed control at 125 g/ha [11, 22] | pest or weed control at 500 g/ha ([12]; Setaria faberi, post-emergence, 240 h, 500 g ai/ha, 0 to 100 scale, 0 no effect, 100 complete control, read-out: Foxtail, Giant plant response rating)
40%: pest or weed control at 125 g/ha [3]
90%: pest or weed control at 500 g/ha ([5]; Galium, post-emergence, 240 h, 500 g ai/ha, 0 to 100 scale, 0 no effect, 100 complete control, read-out: Galium plant response rating) | pest or weed control at 125 g/ha [9, 20]
30%: pest or weed control at 125 g/ha [12, 23]
100%: pest or weed control at 125 g/ha [2] | pest or weed control at 500 g/ha ([2]; 500 g ai/ha) | pest or weed control at 500 g/ha ([9]; Lolium multiflorum, post-emergence, 240 h, 500 g ai/ha, 0 to 100 scale, 0 no effect, 100 complete control, read-out: Ryegrass, It. plant response rating)

Cn1nc(Cl)c(O)c(-c2nccc3ccccc23)c1=O [Compound 67, 6-chloro-5-hydroxy-4-(1-isoquinolinyl)-2-methyl-3(2H)-pyridazinone]
40: Plant response rating (0 to 100 scale), Pigweed [10, 24]
50%: pest or weed control at 125 g/ha [2] | pest or weed control at 125 g/ha [10, 21]
20: Plant response rating (0 to 100 scale), Galium [5, 24] | Plant response rating (0 to 100 scale), Ryegrass, It. [9, 24]
0%: pest or weed control at 31 g/ha ([1]; 31 g ai/ha) | pest or weed control at 125 g/ha [1] | pest or weed control at 31 g/ha ([3]; 31 g ai/ha) | pest or weed control at 125 g/ha [3] | pest or weed control at 31 g/ha ([4]; 31 g ai/ha) | pest or weed control at 125 g/ha [4] | plant injury at 125 g/ha (corn (Zea mays); [16]) | pest or weed control at 31 g/ha ([6]; 31 g ai/ha) | pest or weed control at 125 g/ha [6] | plant injury at 125 g/ha [7, 19] | pest or weed control at 31 g/ha ([8]; 31 g ai/ha) | pest or weed control at 125 g/ha [8] | pest or weed control at 125 g/ha [12, 23] | pest or weed control at 250 g/ha [13] | pest or weed control at 250 g/ha [15] | plant injury at 250 g/ha (rice (Oryza sativa))
40%: pest or weed control at 125 g/ha (kochia (Kochia scoparia); [17]) | pest or weed control at 125 g/ha [5, 18]
10%: pest or weed control at 31 g/ha ([2]; 31 g ai/ha) | pest or weed control at 125 g/ha [11, 22]
60%: pest or weed control at 125 g/ha [9, 20]
75%: pest or weed control at 250 g/ha [14]
0: Plant response rating (0 to 100 scale), Corn (corn (Zea mays); [24]) | Plant response rating (0 to 100 scale), Kochia (kochia (Kochia scoparia); [24]) | Plant response rating (0 to 100 scale), Wheat [7, 24] | Plant response rating (0 to 100 scale), Ragweed [11, 24] | Plant response rating (0 to 100 scale), Foxtail, Giant [12, 24]
